This is an account of results in US11987540B2, “Crystalline solids of 3-palmitoyl-amido-1,2-propanediol and 3-palmitoyl-amido-2-hydroxy-1-dimethoxytriphenylmethylether-propane and methods of making and using the same” (Geron Corporation, priority 2019, dated 2024).

Data set [1] is described as follows: Screening of the solubility in various solvents and solvent mixtures. In kind it is physicochemical. How it is done: A screening of the solubility of 3-palmitoyl-amido-1,2-propanediol was conducted with various solvents and solvent mixtures. Tetrahydrofuran (THF), 2-methyl-THF, dichloromethane (DCM), N-methyl-2-pyrrolidone (NMP), dimethylacetamide (DMAc), toluene, 2-methylbutan-2-ol (tAmOH), isopropylacetate (iPrOAc), dimethylsulfoxide (DMSO) and dimethylformamide (DMF) were identified as solvents for use in the studies. The effect of triethylamine on the solubility was also evaluated.

Data set [2] in a line: Solubility (dissolution) of the new crystalline polymorph used as substrate. The class given is physicochemical. To be noted: polymorph from THF, 2-methyl-THF or DCM with triethylamine, heat/cool crystallization. How it is done:
Crystalline solids were identified as a new polymorph of 3-palmitoyl-amido-1,2-propanediol using THF, 2-methyl-THF or DCM with triethylamine during a heat/cool induced crystallization. The heat/cool crystallization included solubilizing 3-palmitoyl-amido-1,2-propanediol in a solution of THF, and heating and maintaining the composition at 50° C. overnight. For 2-methyl-THF or DCM, the solution with palmitoyl-amido-1,2-propanediol was heated to 60° C. overnight to produce a solution. After cooling the samples back to 30° C., crystalline solids formed as slurries in the solutions of THF, 2-methyl-THF and DCM.

Data set [3] concerns telomerase. To be noted: cited from earlier work.
Data set [4] has as its system myelofibrosis. The note with it: cited from earlier work.
For data set [5], the system named is cancer cell lines and human tumors. To be noted: multitude of different cancer cell lines and human tumors; cited from earlier work.
Data set [6] relates to template region of the RNA component of telomerase. To be noted: cited from earlier work.

For `CCCCCCCCCCCCCCCC(=O)NCC(O)CO` (stereo not shown) [3-palmitoyl-amido-1,2-propanediol], in data set [1] (in the screened solvents (THF, 2-methyl-THF, DCM, NMP, DMAc, toluene, tAmOH, iPrOAc, DMSO, DMF)), the “effect of triethylamine on the solubility” value is “small effect”. Besides, the solubility result in data set [1] (solvent dimethylacetamide (DMAc)), in data set [1] (solvent dimethylformamide (DMF)) and in data set [1] (solvent dimethylsulfoxide (DMSO)) was “moderate solubility” throughout. In data set [2], the “solubility of the polymorph” value is listed as “faster solubility”.

As for Imetelstat, the telomerase activity result in data set [3] is “inhibits telomerase activity”. Further, the bone marrow fibrosis result in data set [4] (patients with myelofibrosis in complete remission) is on record as “reversal of bone marrow fibrosis”. Further, in data set [4] (patients with myelofibrosis), the clinical remission result is “complete clinical remissions in certain patients”. Also, the cell proliferation result in data set [5] is recorded as “effective against cell proliferation”. Also, in data set [6], the binding affinity result was “high affinity”.
